Like-named read-outs stand apart in the source and are kept apart here.

Assay [1] relates to CyTDH: TDH from Cytophaga sp. KUC-1. As to conditions: substrate specificity; L-threonine = 100; cited from earlier work.
For assay [2], the target named is EcTDH: TDH from Escherichia coli K-12 (Escherichia coli, UniProt P07913). The conditions noted are these: cited from earlier work.
In assay [3] the test system is GdTDH: TDH from chicken liver (Gallus domesticus). As to conditions: substrate specificity; L-threonine = 100; cited from earlier work.
Assay [4] relates to CsTDH: TDH from Clostridium sticklandii. As to conditions: substrate specificity; L-threonine = 100; cited from earlier work.
In assay [5] the target is PfTDH: TDH from Pyrococcus furiosus (Pyrococcus furiosus, UniProt Q8U259). As to conditions: substrate specificity; L-threonine = 100; cited from earlier work.
For assay [6], the system named is TDH derived from Cupriavidus necator NBRC 102504 (SEQ ID NO: 1) (CnTDH). Kind of assay: Substrate specificity of TDH, standard assay. It counts as biochemical. As to conditions: for Activity of the present enzyme on the substrate (in words): substrate 10 mM. As for the experimental part:
L-threonine oxidation activity was determined by measuring coenzyme NAD^+ reduction at 30° C. and 340 nm. The reaction composition consisted of a total volume of 1 mL and contained L-threonine (final concentration 10 mM), NAD^+ (final concentration 2.5 mM), and glycine-KCl—KOH buffer (100 mM, pH 10.0). The measurement of activity began with the addition of the enzyme. One unit (U) of enzymatic activity was defined as the amount of enzyme producing 1 μmol of NADH per minute under standard conditions.
TDH was examined using substrates in the form of various L-amino acids, amino alcohols, and alcohols. […]

For assay [7], the system named is AgTDH: TDH from Arthrobacter globiformis. The conditions noted are these: substrate specificity; L-threonine = 100; cited from earlier work.
For a further assay, the target named is TkTDH (Thermococcus kodakarensis, UniProt Q5JI69). The conditions noted are these: substrate specificity; L-threonine = 100; cited from earlier work.
Assay [8] concerns StTDH: TDH from Streptomyces sp. 139. The conditions noted are these: substrate specificity; L-threonine = 100; cited from earlier work.
[9] abbreviates: substrate specificity, L-threonine = 100.
The mark [10] stands for this setting: substrate concentration 10 mM, standard assay conditions, L-threonine = 100.

EcTDH: TDH from Escherichia coli K-12, sequence (P07913 whole entry): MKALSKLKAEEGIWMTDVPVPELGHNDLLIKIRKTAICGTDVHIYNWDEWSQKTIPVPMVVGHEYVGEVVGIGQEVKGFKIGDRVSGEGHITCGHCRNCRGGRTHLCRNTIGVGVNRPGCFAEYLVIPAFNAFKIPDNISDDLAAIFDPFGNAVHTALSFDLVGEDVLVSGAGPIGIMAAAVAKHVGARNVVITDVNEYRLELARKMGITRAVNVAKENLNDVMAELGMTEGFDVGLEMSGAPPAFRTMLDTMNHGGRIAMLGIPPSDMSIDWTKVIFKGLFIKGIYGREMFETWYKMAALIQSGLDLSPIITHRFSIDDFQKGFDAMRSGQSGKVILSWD
PfTDH: TDH from Pyrococcus furiosus, sequence (Q8U259 whole entry): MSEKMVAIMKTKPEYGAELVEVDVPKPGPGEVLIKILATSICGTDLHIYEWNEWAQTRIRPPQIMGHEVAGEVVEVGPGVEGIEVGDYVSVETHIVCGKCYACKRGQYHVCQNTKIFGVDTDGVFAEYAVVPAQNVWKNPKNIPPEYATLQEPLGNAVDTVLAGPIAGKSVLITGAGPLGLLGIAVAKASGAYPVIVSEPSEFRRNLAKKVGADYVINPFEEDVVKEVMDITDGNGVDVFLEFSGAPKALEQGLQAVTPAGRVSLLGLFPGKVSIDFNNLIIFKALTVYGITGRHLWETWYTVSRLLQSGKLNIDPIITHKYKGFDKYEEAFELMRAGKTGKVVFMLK
TkTDH, sequence (Q5JI69 whole entry): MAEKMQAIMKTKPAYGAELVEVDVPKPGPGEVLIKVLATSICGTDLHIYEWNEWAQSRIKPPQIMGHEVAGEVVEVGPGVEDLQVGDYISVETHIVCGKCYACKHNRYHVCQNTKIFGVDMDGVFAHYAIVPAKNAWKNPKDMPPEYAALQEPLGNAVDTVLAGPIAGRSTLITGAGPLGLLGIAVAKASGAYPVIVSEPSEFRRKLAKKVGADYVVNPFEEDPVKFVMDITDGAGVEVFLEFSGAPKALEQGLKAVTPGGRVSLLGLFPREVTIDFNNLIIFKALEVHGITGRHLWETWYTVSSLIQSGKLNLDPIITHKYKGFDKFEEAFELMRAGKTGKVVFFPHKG

As to `C[C@@H](O)[C@H](N)C(=O)O` [L-threonine], the “Relative activity (%) CyTDH” value in assay [1] is reported as 100%. In assay [2] (setting [9]), the “Relative activity (%) EcTDH” value is 100.0%. The “Relative activity (%) GdTDH” value in assay [3] was 100%. Further, the “Relative activity (%) CsTDH” value in assay [4] is 100%. Also, in assay [5], the “Relative activity (%) PfTDH” value is 100%. The “Activity of the present enzyme on the substrate (in words)” value in assay [6] (standard assay conditions) is “exhibited the activity for only L-threonine”. Also, the “Relative activity (%) CnTDH” value in assay [6] (setting [10]) was found to be 100%. The “Relative activity (%) AgTDH” value in assay [7] was 100%. Further, at TkTDH, the “Relative activity (%) TkTDH” value is listed as 100%. Further, the “Relative activity (%) StTDH” value in assay [8] is on record as 100%.
Turning to `C[C@@H](O)[C@H](N)C(N)=O` [L-threonine amide], the “Relative activity (%) EcTDH” value in assay [2] is 98%. The “Relative activity (%) CsTDH” value in [4] is on record as 0%. The “Relative activity (%) CnTDH” value in [6] (setting [10]) was 0%.
With `C[C@H](O)[C@H](N)C(=O)O` (racemic) [DL-allothreonine], the “Relative activity (%) EcTDH” value in assay [2] (setting [9]) is 95.0%. Moreover, in assay [3], the “Relative activity (%) GdTDH” value was 0%. For the same compound, in assay [4], the “Relative activity (%) CsTDH” value is 0%. Moreover, in assay [6] (setting [10]), the “Relative activity (%) CnTDH” value is 0%.
As to `C[C@H](O)[C@@H](N)C(=O)O` [D-threonine], in [1], the “Relative activity (%) CyTDH” value is on record as 0%. Besides, the “Relative activity (%) EcTDH” value in [2] (setting [9]) is listed as 63.7%. Further, in [3], the “Relative activity (%) GdTDH” value is given as 0%. Besides, in assay [4], the “Relative activity (%) CsTDH” value is 0%. Moreover, the “Relative activity (%) PfTDH” value in assay [5] is 5%. In addition, the “Activity of the present enzyme on the substrate (in words)” value in assay [6] (standard assay conditions) is recorded as “no activity was observed”. Further, the “Relative activity (%) CnTDH” value in assay [6] (setting [10]) was 0%.
On to `CCC(O)C(N)C(=O)O` (racemic) [DL-α-amino-β-hydroxyvaleric acid], for which the “Relative activity (%) CyTDH” value in [1] is given as 31%. The “Relative activity (%) EcTDH” value in [2] (setting [9]) is given as 71%. The “Relative activity (%) GdTDH” value in assay [3] is 0%. In assay [4], the “Relative activity (%) CsTDH” value is on record as 20%.
In the case of `COC(=O)[C@@H](N)[C@@H](C)O` [L-threonine methyl ester], the “Relative activity (%) EcTDH” value in [2] (setting [9]) is 27%. Besides, in assay [4], the “Relative activity (%) CsTDH” value is on record as 0%. For the same compound, the “Relative activity (%) CnTDH” value in assay [6] (setting [10]) turned out to be 0%.
Regarding `N[C@@H](CO)C(=O)O` [L-serine], the “Relative activity (%) CyTDH” value in assay [1] is reported as 0%. In addition, the “Relative activity (%) EcTDH” value in assay [2] (setting [9]) is recorded as 4.0%. The “Relative activity (%) GdTDH” value in [3] is on record as 0%. Further, in assay [4], the “Relative activity (%) CsTDH” value is listed as 0%. Moreover, the “Relative activity (%) PfTDH” value in assay [5] is 15%. The “Relative activity (%) CnTDH” value in [6] (substrate 100 mM) and in assay [6] (setting [10]) was 0% each time. At TkTDH, the “Relative activity (%) TkTDH” value is on record as 13%.
With `N[C@@H](Cc1ccccc1)C(=O)O` [L-phenylalanine], in assay [1], the “Relative activity (%) CyTDH” value is 0%. For the same compound, the “Relative activity (%) CsTDH” value in assay [4] is 0%. Also, the “Relative activity (%) PfTDH” value in [5] is reported as 0%. The “Relative activity (%) CnTDH” value in assay [6] (setting [10]) was determined as 0%.
Consider `N[C@@H](CCC(=O)O)C(=O)O` [L-glutamic acid], for which the “Relative activity (%) CyTDH” value in [1] is reported as 0%. For the same compound, in [4], the “Relative activity (%) CsTDH” value is on record as 0%. Besides, the “Relative activity (%) PfTDH” value in assay [5] was 0%. In addition, in [6] (setting [10]), the “Relative activity (%) CnTDH” value is reported as 0%.
On to `NC(=O)C[C@H](N)C(=O)O` [L-asparagine], for which the “Relative activity (%) CyTDH” value in [1] is 0%. In addition, the “Relative activity (%) CsTDH” value in assay [4] is 0%. Also, in [5], the “Relative activity (%) PfTDH” value was 0%. Further, the “Relative activity (%) CnTDH” value in assay [6] (setting [10]) is 0%.
`C[C@@H](O)[C@H](N)C(=O)O` [L-threonine hydroxide]: the “Relative activity (%) EcTDH” value in assay [2] (setting [9]) is 25%. For the same compound, in [4], the “Relative activity (%) CsTDH” value is 0%. Moreover, the “Relative activity (%) CnTDH” value in assay [6] (setting [10]) worked out at 0%.
With `NC(C(=O)O)C(O)c1ccccc1` (racemic) [DL-threo-3-phenylserine], the “Relative activity (%) CyTDH” value in assay [1] is given as 0%. The “Relative activity (%) EcTDH” value in assay [2] (setting [9]) is given as 3%. Further, in assay [4], the “Relative activity (%) CsTDH” value is listed as 0%. The “Relative activity (%) CnTDH” value in [6] (setting [10]) stood at 0%.
As to `CC(C)[C@H](N)C(=O)O` [L-valine], in [1], the “Relative activity (%) CyTDH” value was 0%. Moreover, the “Relative activity (%) CsTDH” value in assay [4] is recorded as 0%. In addition, in [5], the “Relative activity (%) PfTDH” value is recorded as 0%. Also, the “Relative activity (%) CnTDH” value in [6] (setting [10]) is 0%.
For the compound `N[C@@H](Cc1ccc(O)cc1)C(=O)O` [L-tyrosine], in assay [1], the “Relative activity (%) CyTDH” value was 0%. The “Relative activity (%) CsTDH” value in assay [4] is given as 0%. Moreover, the “Relative activity (%) PfTDH” value in assay [5] was 0%. Further, the “Relative activity (%) CnTDH” value in [6] (setting [10]) is 0%.

The record behind these values is patent US8785147B2, “L-threonine analysis method and L-threonine dehydrogenase” (Toyama Prefecture, priority 2010, dated 2014).
